The record followed here is ChEMBL document CHEMBL2384940, “Discovery of (R)-(2-fluoro-4-((-4-methoxyphenyl)ethynyl)phenyl) (3-hydroxypiperidin-1-yl)methanone (ML337), an mGlu3 selective and CNS penetrant negative allosteric modulator (NAM)” (J Med Chem, 2013).

In brackets after ≈: the same amount, converted by molar mass. Activity calls are given as the source filed them. The calls are words filed in the database; no cut-off is given here.

In data set [1] the target is Metabotropic glutamate receptor 3 (Rattus norvegicus, UniProt P31422). Description: Negative allosteric modulation of rat mGlu3 receptor transfected in human TREX cells assessed as inhibition of glutamate-induced calcium mobilization after 2.5 mins. The class given is functional, cell-based. Background: A change in cytosolic calcium serves as a functional read-out for many receptors and channels.
Chain of Metabotropic glutamate receptor 3 (P31422 whole entry): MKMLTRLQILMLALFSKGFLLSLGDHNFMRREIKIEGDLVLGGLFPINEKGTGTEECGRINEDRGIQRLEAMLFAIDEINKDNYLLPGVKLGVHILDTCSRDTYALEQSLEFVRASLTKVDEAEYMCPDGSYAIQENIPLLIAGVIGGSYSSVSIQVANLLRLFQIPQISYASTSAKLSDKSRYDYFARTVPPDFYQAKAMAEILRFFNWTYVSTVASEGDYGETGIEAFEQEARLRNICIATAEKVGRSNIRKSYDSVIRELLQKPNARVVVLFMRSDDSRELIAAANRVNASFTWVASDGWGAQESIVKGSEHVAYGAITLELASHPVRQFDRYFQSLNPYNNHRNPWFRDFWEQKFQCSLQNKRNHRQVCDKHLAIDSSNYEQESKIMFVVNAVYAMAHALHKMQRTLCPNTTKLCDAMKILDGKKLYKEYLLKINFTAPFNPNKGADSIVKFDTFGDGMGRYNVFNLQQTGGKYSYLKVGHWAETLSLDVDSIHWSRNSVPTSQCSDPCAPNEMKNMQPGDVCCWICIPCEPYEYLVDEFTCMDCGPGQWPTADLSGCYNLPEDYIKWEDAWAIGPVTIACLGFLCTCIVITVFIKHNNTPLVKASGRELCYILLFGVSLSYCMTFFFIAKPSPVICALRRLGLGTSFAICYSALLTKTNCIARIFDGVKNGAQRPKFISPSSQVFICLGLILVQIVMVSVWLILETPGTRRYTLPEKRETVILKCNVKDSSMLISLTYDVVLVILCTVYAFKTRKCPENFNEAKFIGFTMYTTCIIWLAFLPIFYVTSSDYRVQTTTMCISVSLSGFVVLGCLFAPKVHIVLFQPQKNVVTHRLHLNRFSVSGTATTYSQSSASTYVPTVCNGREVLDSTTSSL

Data set [2] has as its target Metabotropic glutamate receptor 3 (Rattus norvegicus) (UniProt P31422). Nature of the data set: Negative allosteric modulation of rat mGlu3 receptor transfected in human TREX cells after 2.5 mins by calcium mobilization assay relative to glutamate. The class given is functional, cell-based. Details: concentration or dose not given beside the values.
Data set [3] addresses Metabotropic glutamate receptor 2 (Rattus norvegicus, UniProt P31421). Description: Negative allosteric modulation of rat mGlu2 receptor transfected in HEK293 cells assessed as inhibition of glutamate-induced calcium mobilization after 2.5 mins. It counts as functional, cell-based.
The species entered for the next data set is Homo sapiens. Description: Selectivity ratio of IC50 for human mGlu2 receptor to IC50 for human mGlu3 receptor.
The target in another data set is T1, Cytochrome P450 1A2 (Homo sapiens, UniProt P05177).
T1 sequence (P05177 whole entry): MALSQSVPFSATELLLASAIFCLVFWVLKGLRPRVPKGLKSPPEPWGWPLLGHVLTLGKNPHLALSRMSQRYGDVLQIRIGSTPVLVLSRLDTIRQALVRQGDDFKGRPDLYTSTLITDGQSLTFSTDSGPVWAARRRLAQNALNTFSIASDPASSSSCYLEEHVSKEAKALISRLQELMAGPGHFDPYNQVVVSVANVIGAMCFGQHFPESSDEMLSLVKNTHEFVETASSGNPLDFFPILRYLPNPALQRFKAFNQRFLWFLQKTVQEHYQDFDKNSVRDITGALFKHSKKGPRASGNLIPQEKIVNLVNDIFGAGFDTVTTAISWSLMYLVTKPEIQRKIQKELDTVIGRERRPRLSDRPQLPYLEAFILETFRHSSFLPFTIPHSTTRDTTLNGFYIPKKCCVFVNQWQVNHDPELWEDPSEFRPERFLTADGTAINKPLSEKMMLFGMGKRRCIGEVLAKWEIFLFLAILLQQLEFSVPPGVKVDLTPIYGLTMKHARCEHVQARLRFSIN
Nature of the data set: Inhibition of CYP1A2 in human liver microsomes using phenacetin as substrate incubated for 15 mins prior to NADPH addition measured after 8 mins by LC/MS/MS analysis. It counts as ADME, Microsome. (Microsomes from liver hold many membrane-bound enzymes, among them those of drug oxidation.)

In data set [4] the target is Sodium-dependent dopamine transporter (Homo sapiens) (UniProt Q01959). Nature of the data set: Binding affinity to human DAT at 10 uM by radioligand displacement assay relative to control.
Data set [5] has as its target Metabotropic glutamate receptor 3 (Rattus norvegicus) (UniProt P31422). Description: Negative allosteric modulation of rat mGlu3 receptor transfected in human TREX cells assessed as inhibition of glutamate/LY379268-induced calcium mobilization. It counts as functional, cell-based.
The test system of data set [6] is Plasma. Nature of the data set: Plasma protein binding in mouse at 5 uM after 4 hrs by LC/MS/MS analysis. It counts as ADME, cell-free.
In data set [7] the target is Metabotropic glutamate receptor 5 (Homo sapiens) (UniProt P41594). Nature of the data set: Negative allosteric modulation of mGlu5 receptor (unknown origin) up to 30 uM.
The target of data set [8] is 5-hydroxytryptamine receptor 2B (Homo sapiens) (UniProt P41595). Nature of the data set: Binding affinity to human 5-HT2B receptor at 10 uM by radioligand displacement assay relative to control. Background: In a radioligand displacement assay an active substance lowers the binding of a labelled ligand.
Another data set concerns the target Cytochrome P450 2C9 (Homo sapiens, UniProt P11712). Nature of the data set: Inhibition of CYP2C9 in human liver microsomes using diclofenac as substrate incubated for 15 mins prior to NADPH addition measured after 8 mins by LC/MS/MS analysis. The class given is ADME, Microsome.
In another data set the test system is Liver microsomes. Description: Metabolic stability in human liver microsomes at 1 uM. The class given is ADME, Microsome.
A short description of data set [9]: Solubility of the compound in PBS. The class given is physicochemical. As to conditions: buffer.
Data set [10] has as its target Metabotropic glutamate receptor 7 (Homo sapiens) (UniProt Q14831). Nature of the data set: Negative allosteric modulation of mGlu7 receptor (unknown origin) up to 30 uM.
The target in data set [11] is Metabotropic glutamate receptor 8 (Homo sapiens) (UniProt O00222). Nature of the data set: Negative allosteric modulation of mGlu8 receptor (unknown origin) up to 30 uM.
In a further data set the target is Cytochrome P450 2D6 (Homo sapiens, UniProt P10635). Description: Inhibition of CYP2D6 in human liver microsomes using dextromethorphan as substrate incubated for 15 mins prior to NADPH addition measured after 8 mins by LC/MS/MS analysis. It counts as ADME, Microsome.
Chain of Cytochrome P450 2D6 (P10635 whole entry): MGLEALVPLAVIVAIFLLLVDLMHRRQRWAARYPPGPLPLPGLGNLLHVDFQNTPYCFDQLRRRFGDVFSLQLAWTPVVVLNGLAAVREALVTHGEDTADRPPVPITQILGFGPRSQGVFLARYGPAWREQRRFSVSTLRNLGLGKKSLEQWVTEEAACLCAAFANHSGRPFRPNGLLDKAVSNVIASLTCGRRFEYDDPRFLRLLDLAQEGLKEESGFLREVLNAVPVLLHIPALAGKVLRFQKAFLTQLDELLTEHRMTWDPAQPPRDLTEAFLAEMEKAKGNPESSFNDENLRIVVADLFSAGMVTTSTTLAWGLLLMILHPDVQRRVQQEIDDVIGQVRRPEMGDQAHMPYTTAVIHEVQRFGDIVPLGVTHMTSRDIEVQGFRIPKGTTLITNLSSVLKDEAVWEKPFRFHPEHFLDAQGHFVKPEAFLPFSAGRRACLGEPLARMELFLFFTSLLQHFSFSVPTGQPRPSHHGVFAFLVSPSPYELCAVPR
For data set [12], the target named is Metabotropic glutamate receptor 4 (Homo sapiens) (UniProt Q14833). Nature of the data set: Negative allosteric modulation of mGlu4 receptor (unknown origin) up to 30 uM.
Data set [13] deals with Plasma. Nature of the data set: Fraction unbound in rat plasma at 5 uM after 4 hrs by LC/MS/MS analysis. It counts as ADME, cell-free.
In data set [14] the test system is Plasma. Description: Fraction unbound in mouse plasma at 5 uM after 4 hrs by LC/MS/MS analysis. The class given is ADME, cell-free.
The target of data set [15] is Metabotropic glutamate receptor 3 (Rattus norvegicus) (UniProt P31422). Description: Negative allosteric modulation of rat mGlu3 receptor transfected in human TREX cells assessed as non-competitive decrease in glutamate EC80. The class given is cell-based.
Chain of Metabotropic glutamate receptor 3 (Rattus norvegicus) (P31422 23-879 limits assumed): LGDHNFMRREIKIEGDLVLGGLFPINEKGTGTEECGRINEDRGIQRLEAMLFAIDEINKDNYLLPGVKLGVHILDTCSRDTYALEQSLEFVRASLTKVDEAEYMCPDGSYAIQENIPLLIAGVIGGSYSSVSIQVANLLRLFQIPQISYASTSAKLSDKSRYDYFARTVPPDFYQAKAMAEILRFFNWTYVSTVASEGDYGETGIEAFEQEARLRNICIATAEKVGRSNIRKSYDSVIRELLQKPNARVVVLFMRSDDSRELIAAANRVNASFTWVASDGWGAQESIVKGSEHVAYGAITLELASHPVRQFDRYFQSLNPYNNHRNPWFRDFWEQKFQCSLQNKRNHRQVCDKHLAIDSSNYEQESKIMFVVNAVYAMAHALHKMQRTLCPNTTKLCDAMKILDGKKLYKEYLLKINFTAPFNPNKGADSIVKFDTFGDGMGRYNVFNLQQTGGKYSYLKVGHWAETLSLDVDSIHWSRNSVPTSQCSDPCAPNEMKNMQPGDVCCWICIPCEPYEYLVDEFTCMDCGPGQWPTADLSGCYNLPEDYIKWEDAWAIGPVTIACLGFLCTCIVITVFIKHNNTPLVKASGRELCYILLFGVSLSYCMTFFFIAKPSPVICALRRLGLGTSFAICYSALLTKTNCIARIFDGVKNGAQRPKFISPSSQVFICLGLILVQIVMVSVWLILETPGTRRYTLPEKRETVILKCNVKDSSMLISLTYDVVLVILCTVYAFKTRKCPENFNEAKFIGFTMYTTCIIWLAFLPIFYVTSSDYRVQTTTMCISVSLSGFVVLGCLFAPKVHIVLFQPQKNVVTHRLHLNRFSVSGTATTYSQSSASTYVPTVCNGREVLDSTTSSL
For data set [16], the target named is Metabotropic glutamate receptor 1 (Homo sapiens) (UniProt Q13255). Nature of the data set: Negative allosteric modulation of mGlu1 receptor (unknown origin) up to 30 uM.
Chain of Metabotropic glutamate receptor 1 (Homo sapiens) (Q13255 19-1194 limits assumed): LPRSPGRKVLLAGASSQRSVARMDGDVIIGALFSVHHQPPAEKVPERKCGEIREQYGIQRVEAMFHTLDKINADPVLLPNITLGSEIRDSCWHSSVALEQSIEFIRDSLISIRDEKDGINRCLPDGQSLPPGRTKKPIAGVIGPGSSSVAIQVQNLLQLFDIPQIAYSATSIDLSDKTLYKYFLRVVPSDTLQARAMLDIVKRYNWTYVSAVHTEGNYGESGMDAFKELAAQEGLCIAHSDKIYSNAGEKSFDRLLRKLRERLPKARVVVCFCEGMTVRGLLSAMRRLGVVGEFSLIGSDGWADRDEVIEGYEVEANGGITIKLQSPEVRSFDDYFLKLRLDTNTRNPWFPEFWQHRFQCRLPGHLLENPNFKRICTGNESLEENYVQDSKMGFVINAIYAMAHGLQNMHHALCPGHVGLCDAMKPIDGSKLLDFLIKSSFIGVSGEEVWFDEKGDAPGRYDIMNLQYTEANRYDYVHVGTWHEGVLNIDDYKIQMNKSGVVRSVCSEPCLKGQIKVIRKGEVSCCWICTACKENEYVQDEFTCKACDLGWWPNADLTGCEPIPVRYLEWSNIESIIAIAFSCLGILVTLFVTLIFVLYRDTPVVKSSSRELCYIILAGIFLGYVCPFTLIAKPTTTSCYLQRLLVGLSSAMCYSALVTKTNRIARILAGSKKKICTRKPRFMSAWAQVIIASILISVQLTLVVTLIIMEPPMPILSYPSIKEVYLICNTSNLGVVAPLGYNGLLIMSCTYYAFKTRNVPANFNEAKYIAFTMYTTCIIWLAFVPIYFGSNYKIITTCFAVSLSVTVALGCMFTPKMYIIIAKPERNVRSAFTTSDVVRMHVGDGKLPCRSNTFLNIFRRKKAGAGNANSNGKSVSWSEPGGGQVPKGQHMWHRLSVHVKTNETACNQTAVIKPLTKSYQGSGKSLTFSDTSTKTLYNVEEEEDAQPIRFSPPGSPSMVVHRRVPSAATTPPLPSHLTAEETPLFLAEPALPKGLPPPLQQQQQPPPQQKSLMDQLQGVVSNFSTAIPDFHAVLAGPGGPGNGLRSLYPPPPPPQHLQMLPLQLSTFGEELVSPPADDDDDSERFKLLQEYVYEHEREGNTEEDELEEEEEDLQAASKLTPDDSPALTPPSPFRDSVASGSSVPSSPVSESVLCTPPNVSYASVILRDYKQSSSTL
Data set [17] deals with Metabotropic glutamate receptor 6 (Homo sapiens) (UniProt O15303). Nature of the data set: Negative allosteric modulation of mGlu6 receptor (unknown origin) up to 30 uM.
In data set [18] the test system is Plasma. Description: Fraction unbound in human plasma at 5 uM after 4 hrs by LC/MS/MS analysis. It counts as ADME, cell-free.
Data set [19] has as its system Plasma. Description: Plasma protein binding in human at 5 uM after 4 hrs by LC/MS/MS analysis. The class given is ADME, cell-free.

The inhibition is the change of the read-out against control, counted positive when it falls. The term solubility denotes how much of the substance goes into solution per volume.

Chain of Metabotropic glutamate receptor 2 (P31421 whole entry): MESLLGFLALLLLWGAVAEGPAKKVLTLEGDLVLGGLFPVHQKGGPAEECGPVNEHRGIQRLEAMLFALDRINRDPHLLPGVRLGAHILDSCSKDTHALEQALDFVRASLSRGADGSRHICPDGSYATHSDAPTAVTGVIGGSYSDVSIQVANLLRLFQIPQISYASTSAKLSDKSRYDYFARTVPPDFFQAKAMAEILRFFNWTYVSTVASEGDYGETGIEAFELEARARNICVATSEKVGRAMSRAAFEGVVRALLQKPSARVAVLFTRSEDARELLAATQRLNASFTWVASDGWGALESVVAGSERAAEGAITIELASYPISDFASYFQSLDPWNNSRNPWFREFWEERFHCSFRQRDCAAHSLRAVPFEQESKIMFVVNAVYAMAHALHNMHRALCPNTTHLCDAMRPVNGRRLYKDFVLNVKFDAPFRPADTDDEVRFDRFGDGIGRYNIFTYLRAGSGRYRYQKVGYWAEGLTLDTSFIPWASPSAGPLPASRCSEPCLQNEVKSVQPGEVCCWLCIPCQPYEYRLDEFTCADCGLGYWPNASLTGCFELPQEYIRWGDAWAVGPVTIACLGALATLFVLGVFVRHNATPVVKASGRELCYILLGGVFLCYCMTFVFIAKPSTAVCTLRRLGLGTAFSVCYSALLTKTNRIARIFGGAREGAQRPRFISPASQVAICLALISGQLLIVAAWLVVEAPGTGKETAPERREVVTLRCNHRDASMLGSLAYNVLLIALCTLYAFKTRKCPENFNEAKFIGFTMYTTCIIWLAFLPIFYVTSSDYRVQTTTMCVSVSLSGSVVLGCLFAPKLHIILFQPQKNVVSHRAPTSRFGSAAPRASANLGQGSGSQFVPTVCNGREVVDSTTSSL
Chain of Cytochrome P450 2C9 (P11712 whole entry): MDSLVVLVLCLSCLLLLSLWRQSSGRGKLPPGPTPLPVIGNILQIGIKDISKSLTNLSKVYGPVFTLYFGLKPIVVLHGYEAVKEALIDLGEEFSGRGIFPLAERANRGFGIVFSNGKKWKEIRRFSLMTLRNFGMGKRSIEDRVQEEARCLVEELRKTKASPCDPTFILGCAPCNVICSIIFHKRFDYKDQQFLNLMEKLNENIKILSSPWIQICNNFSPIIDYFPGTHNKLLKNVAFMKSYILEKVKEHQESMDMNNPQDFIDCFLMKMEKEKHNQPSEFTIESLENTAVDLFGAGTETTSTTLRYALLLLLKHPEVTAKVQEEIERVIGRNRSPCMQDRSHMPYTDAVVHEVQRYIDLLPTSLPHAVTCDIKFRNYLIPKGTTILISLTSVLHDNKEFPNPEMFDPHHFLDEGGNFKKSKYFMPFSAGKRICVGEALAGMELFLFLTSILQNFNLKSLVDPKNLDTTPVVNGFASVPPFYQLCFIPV

With `CC(C)Oc1ccc(C#Cc2ccc(C(=O)N3CCC[C@@H](CO)C3)cc2)cc1`, the IC50 in [1] (read-out: IC50) is > 10 µM.
In the case of `O=C(c1ccc(C#Cc2ccc(O)cc2)cc1)N1CCC[C@@H](CO)C1`, the IC50 in data set [1] (read-out: IC50) is > 10 µM.
`COc1ccc(C#Cc2ccc(C(=O)N3CC[C@@H](O)C3)cc2)cc1`: in [2], the Activity was 0%. In addition, the results for the IC50 in [3] and in data set [1] (read-out: pIC50 (converted)) were > 30 µM and 10.2 µM, respectively.
On to `COc1ccc(C#Cc2ccc(C(=O)N3CCC[C@@H](O)C3)cc2F)cc1`, for which the Activity in data set [2] worked out at 1.64%. Also, the IC50 in data set [3] was > 30 µM; in data set [1] (read-out: IC50) it was 0.456 µM.
With `COc1ccc(C#Cc2ccc(C(=O)N3CCC[C@@H](CO)C3)cc2)cc1`, in data set [1] (read-out: IC50), the IC50 is > 10 µM.
In the case of `O=C(c1ccc(C#Cc2ccc(Oc3ccccc3)cc2)cc1)N1CCC[C@@H](CO)C1`, the IC50 in data set [1] (read-out: IC50) was > 10 µM.
In the case of `COc1ccc(C#Cc2ccc(C(=O)N3CCC[C@@H](CO)C3)cc2)c(F)c1`, the IC50 in [1] (read-out: IC50) was > 10 µM.
For the compound `O=C(c1ccc(C#Cc2ccc(OC(F)(F)F)cc2)cc1)N1CCC[C@@H](CO)C1`, the IC50 in [1] (read-out: IC50) was > 10 µM.
Same read-out and setting: under `COc1ccc(C#Cc2ccc(C(=O)N3CCC[C@@H](CO)C3)cc2)cc1F` stands > 10 µM.
In the case of `Clc1ccc(CN[C@H]2CCN(c3ncc(Br)cn3)C2)c(Cl)c1`, the Ratio IC50 in the data set listed under Homo sapiens is 4.
For `COc1ccc(C#Cc2ccc(C(=O)N3CCC[C@@H](O)C3)cc2)cc1`, the Activity in data set [2] turned out to be 2%. Besides, the IC50 in data set [3] is > 30 µM; in data set [1] (read-out: IC50) it was 0.65 µM.
As to `CSc1ccc(C#Cc2ccc(C(=O)N3CCC[C@@H](CO)C3)cc2)cc1`, the IC50 in [1] (read-out: IC50) was > 10 µM.
Same read-out and setting: next, `COc1ccc(C#Cc2ccc(C(=O)N3CCC[C@@H](CO)C3)cc2)cn1`: > 10 µM.
Consider `COc1ccc(C#Cc2ccc(C(=O)N3CCC[C@@H](O)C3)c(F)c2)cc1`, for which the IC50 was > 30 µM against Cytochrome P450 1A2; > 30 µM at Cytochrome P450 2C9; > 30 µM in data set [3]; 0.593 µM in data set [1] (read-out: IC50); 0.603 µM in data set [1] (read-out: pIC50 (converted)); > 30 µM against Cytochrome P450 2D6. For the same compound, the inhibition in [4] worked out at 71%; in data set [8] it was 74%. The outcome in [5] and in data set [15] was Active. Also, the PPB with Plasma [6] and in the data set on Plasma [19] was 97% throughout. Further, the outcome in data set [7], in data set [10], in [11], in data set [12], in data set [16] and in data set [17] was inactive. Also, the Activity in [2] was determined as 1.9%. The Stability entry with Liver microsomes is reported as “Unstable”. The compound also returned a solubility in [9] of 7.8 µM (≈ 2.76 µg/mL). Further, the Fu in the data set on Plasma [13] is given as 0.005; with Plasma [14] it was 0.027; in the data set with Plasma [18], 0.03.
Take `COc1ccc(C#Cc2ccc(C(=O)N3CCC[C@H](O)C3)cc2)cc1`: the Activity in data set [2] came out at 1.7%. The IC50 in data set [3] was > 30 µM; in data set [1] (read-out: IC50) it was 1.1 µM.
In the case of `COc1ccc(C#Cc2ccc(C(=O)N3CCCC(O)C3)cc2)cc1` (racemic), the Activity in data set [2] came to 0.4%. In addition, the IC50 in data set [3] is > 30 µM; in data set [1] (read-out: IC50), 0.76 µM.
As to `COc1ccc(C#Cc2ccc(C(=O)NC(C)CO)cc2)cc1` (stereo unspecified), in data set [2], the Activity was found to be 1.6%. For the same compound, the results for the IC50 in data set [3] and in [1] (read-out: pIC50 (converted)) were > 30 µM and 7.59 µM, respectively.
`COc1ccc(C#Cc2ccc(C(=O)N3CCC[C@@H](CO)C3)cc2)c(F)c1F`: the IC50 in [1] (read-out: IC50) was > 10 µM.
With `COc1ccc(C#Cc2ccc(C(=O)N3CC4CCC(=O)C4C3)cc2)cc1` (stereo unspecified), the Activity in [2] is 1.6%. Also, the IC50 in data set [3] is > 30 µM; in data set [1] (read-out: pIC50 (converted)), 2.75 µM.
`O=C(c1ccc(C#Cc2ccc3c(c2)OCCO3)cc1)N1CCC[C@@H](CO)C1`: in [1] (read-out: IC50), the IC50 is > 10 µM.
Take `COc1ccc(C#Cc2ccc(C(=O)N3CCCC(C)(O)C3)cc2)cc1` (stereo unspecified): the Activity in data set [2] is -0.13%. Also, the IC50 in [3] is > 30 µM; in data set [1] (read-out: IC50), 0.711 µM.
Consider `O=C(c1ccc(C#Cc2ccc3c(c2)OCO3)cc1)N1CCC[C@@H](CO)C1`, for which the IC50 in data set [1] (read-out: IC50) is > 10 µM.
As for `[2H]C([2H])([2H])Oc1ccc(C#Cc2ccc(C(=O)N3CCC[C@@H](O)C3)c(F)c2)cc1`, the IC50 in [1] (read-out: IC50) turned out to be 0.45 µM.
Still for that read-out and setting: next, `[2H]C([2H])([2H])Oc1ccc(C#Cc2ccc(C(=O)N3CCC[C@@H](O)C3)cc2)cc1`: 0.31 µM.
On to `COc1ccc(C#Cc2ccc(C(=O)N3CCCC(OC)C3)cc2)cc1` (stereo unspecified), for which, in data set [2], the Activity came to 0%. Also, the values for the IC50 in data set [3] and in data set [1] (read-out: pIC50 (converted)) were > 30 µM and 5.5 µM, respectively.
`COc1ccc(C#Cc2ccc(C(=O)N3CC[C@H](O)C3)cc2)cc1`: the figures for the IC50 in [3] and in [1] (read-out: pIC50 (converted)) were > 30 µM and 27.5 µM, respectively.
As for `COc1ccc(C#Cc2ccc(C(=O)N3CC4CCC(O)C4C3)cc2)cc1` (stereo unspecified), the Activity in [2] amounted to 1.7%. The IC50 was > 30 µM in data set [3] and 5.5 µM in data set [1] (read-out: pIC50 (converted)).
For `COc1ccc(C#Cc2ccc(C(=O)N3CCC(CO)C3)cc2)cc1` (stereo unspecified) the same measures were 0%, > 30 µM and 7.59 µM.
For `CCOc1ccc(C#Cc2ccc(C(=O)N3CCC[C@@H](CO)C3)cc2)cc1`, the IC50 in data set [1] (read-out: IC50) is > 10 µM.
Take `COc1ccc(-c2nnc(-c3ccc(C(=O)N4CCC[C@@H](CO)C4)cc3)o2)cc1`: the IC50 in data set [1] (read-out: IC50) was > 10 µM.
